Laboratory results published in ChEMBL document CHEMBL4368904 (J Med Chem, 2019).

How the values were obtained:
[1] = target: T1, Adenosine receptor A2a (Homo sapiens, UniProt P29274); test: Displacement of [3H]2-[p-(2-carboxyethyl)phenylethylamino]-5-N-ethylcarboxamidoadenosine from human A2A adenosine receptor expressed in HEK293 cell membranes at 10 uM after 60 mins by scintillation proximity assay relative to adenosine 5-N-ethyluronamide
[2] = target: T2, Adenosine receptor A3 (Homo sapiens) (UniProt P0DMS8); test: Displacement of [125I]N6-(4-amino-3-iodobenzyl)adenosine-5-N-methyluronamide from human A3A adenosine receptor expressed in CHO cell membranes at 10 uM after 60 mins by scintillation proximity assay relative to adenosine 5-N-ethyluronamide
T2 sequence (whole entry): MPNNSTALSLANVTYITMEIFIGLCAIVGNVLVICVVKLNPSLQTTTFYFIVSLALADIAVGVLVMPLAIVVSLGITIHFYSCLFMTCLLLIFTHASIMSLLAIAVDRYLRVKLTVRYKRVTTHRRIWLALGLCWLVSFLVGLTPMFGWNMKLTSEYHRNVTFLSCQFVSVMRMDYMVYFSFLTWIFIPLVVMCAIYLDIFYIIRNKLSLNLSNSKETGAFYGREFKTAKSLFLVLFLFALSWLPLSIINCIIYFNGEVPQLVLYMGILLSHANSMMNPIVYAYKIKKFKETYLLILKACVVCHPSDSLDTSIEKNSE

[3] = target: T3, Adenosine receptor A3 (Mus musculus) (UniProt Q61618); test: Displacement of [125I]N6-(4-amino-3-iodobenzyl)adenosine-5-N-methyluronamide from mouse A3A adenosine receptor expressed in CHO cell membranes at 10 uM after 60 mins by scintillation proximity assay relative to adenosine 5-N-ethyluronamide
T3 sequence (whole entry): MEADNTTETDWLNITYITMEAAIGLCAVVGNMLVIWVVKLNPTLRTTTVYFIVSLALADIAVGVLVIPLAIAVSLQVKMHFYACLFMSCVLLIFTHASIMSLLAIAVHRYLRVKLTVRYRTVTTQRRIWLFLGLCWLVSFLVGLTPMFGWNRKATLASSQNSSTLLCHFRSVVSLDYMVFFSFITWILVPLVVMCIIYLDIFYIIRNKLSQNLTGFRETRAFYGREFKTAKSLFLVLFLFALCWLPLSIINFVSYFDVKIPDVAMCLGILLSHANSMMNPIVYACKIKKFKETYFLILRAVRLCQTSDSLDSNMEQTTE

[4] = target: T4, Adenosine receptor A1 (Mus musculus) (UniProt Q60612); test: Agonist activity at mouse A1A adenosine receptor at 10 uM after 60 mins by [35S]GTPgammaS binding assay relative to (2S,3S,4R,5R)-5-(6-amino-9H-purin-9-yl)-N-ethyl-3,4-dihydroxytetrahydrofuran-2-carboxamide; assay type: functional
T4 sequence (whole entry): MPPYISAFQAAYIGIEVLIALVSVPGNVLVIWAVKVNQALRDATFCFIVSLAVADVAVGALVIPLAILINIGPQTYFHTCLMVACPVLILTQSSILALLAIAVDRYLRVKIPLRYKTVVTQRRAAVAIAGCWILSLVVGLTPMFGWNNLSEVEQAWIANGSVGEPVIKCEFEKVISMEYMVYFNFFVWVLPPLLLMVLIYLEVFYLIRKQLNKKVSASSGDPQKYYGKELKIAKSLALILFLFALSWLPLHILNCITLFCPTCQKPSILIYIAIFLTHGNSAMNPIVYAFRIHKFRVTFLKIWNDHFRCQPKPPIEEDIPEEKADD

[5] = target: T3, Adenosine receptor A3 (Mus musculus); test: Agonist activity at mouse A3AR adenosine receptor at 10 uM after 60 mins by [35S]GTPgammaS binding assay relative to (2S,3S,4R,5R)-5-(6-amino-9H-purin-9-yl)-N-ethyl-3,4-dihydroxytetrahydrofuran-2-carboxamide; assay type: functional
[6] = species on record: Mus musculus; test: Selectivity index, ratio of Ki for mouse A3A adenosine receptor to Ki for mouse A1A adenosine receptor expressed in CHO cell membranes after 60 mins by scintillation proximity assay
[7] = system: Mus musculus; test: Induction of hypothermia in C57BL/6J mouse assessed as body temperature at 3 mg/kg, ip measured at 60 mins post dose (reference value: 36.3 +/- 0.8 degC); assay type: functional
[8] = system: Mus musculus; test: Induction of hypothermia in C57BL/6J mouse assessed as activity counts at 3 mg/kg, ip measured at 60 mins post dose (reference value: 15.5 +/- 5.5); assay type: functional
[9] = Fraction unbound in human plasma at 10 uM; assay type: ADME, cell-free
[10] = Fraction unbound in mouse plasma at 10 uM; assay type: ADME, cell-free
[11] = Fraction unbound in rat plasma at 10 uM; assay type: ADME, cell-free
[12] = target: T5, 5-hydroxytryptamine receptor 2C (Homo sapiens, UniProt P28335); test: Inhibition of 5HT2C (unknown origin)
T5 sequence (P28335 whole entry): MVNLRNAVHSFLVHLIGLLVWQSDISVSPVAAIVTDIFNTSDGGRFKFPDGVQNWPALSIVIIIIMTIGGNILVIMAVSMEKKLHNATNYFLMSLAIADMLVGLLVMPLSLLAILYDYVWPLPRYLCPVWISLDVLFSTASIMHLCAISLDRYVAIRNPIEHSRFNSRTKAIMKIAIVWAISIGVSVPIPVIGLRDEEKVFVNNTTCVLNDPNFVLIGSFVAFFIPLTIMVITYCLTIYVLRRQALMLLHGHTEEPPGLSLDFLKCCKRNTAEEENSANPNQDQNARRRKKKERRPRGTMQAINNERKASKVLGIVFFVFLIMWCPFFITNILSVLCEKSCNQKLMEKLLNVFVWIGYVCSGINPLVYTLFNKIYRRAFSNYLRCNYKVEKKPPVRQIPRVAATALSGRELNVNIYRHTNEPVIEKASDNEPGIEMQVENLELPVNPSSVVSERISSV

[13] = target: T6, Adenosine receptor A1 (Mus musculus, UniProt Q60612); test: Displacement of [3H]N6-R-phenylisopropyladenosine from mouse A1A adenosine receptor expressed in CHO cell membranes after 60 mins by scintillation proximity assay
T6 sequence (Q60612 whole entry): T4 sequence (whole entry)

[14] = target: T7, Adenosine receptor A3 (Mus musculus, UniProt Q61618); test: Displacement of [125I]N6-(4-amino-3-iodobenzyl)adenosine-5-N-methyluronamide from mouse A3A adenosine receptor expressed in CHO cell membranes after 60 mins by scintillation proximity assay
T7 sequence (Q61618 whole entry): T3 sequence (whole entry)

[15] = target: 5-hydroxytryptamine receptor 2B (Homo sapiens, UniProt P41595); test: Inhibition of 5HT2B (unknown origin)
5-hydroxytryptamine receptor 2B, sequence (P41595 whole entry): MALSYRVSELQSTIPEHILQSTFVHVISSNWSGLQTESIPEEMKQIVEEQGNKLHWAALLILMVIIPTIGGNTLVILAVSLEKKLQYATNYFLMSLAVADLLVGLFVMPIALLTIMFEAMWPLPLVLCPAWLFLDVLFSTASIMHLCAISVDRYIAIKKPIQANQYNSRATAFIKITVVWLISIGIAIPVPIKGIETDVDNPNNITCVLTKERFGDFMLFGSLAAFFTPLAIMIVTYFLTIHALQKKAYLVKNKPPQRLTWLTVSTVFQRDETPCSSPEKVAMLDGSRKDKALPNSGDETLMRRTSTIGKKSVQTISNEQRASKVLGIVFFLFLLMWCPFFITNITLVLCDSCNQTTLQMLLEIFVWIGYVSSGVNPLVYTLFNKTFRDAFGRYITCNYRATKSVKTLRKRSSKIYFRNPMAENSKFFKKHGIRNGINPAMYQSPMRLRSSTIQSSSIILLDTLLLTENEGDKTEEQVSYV

[16] = target: Sigma intracellular receptor 2 (Homo sapiens, UniProt Q5BJF2); test: Inhibition of sigma receptor 2 (unknown origin)
Sigma intracellular receptor 2, sequence (Q5BJF2 whole entry): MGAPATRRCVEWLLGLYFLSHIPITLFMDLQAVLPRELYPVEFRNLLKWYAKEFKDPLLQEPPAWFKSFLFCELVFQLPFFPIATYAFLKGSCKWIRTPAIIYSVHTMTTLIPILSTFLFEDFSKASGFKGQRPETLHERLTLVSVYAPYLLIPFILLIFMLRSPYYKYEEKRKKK

[17] = target: Translocator protein (Homo sapiens, UniProt P30536); test: Inhibition of TSPO (unknown origin)
Translocator protein, sequence (P30536 whole entry): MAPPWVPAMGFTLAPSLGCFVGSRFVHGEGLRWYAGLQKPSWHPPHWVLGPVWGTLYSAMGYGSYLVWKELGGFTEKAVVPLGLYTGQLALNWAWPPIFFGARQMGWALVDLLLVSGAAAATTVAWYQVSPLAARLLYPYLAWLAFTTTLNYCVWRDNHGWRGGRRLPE

[18] = target: Sigma non-opioid intracellular receptor 1 (Homo sapiens, UniProt Q99720); test: Inhibition of sigma receptor 1 (unknown origin)
Sigma non-opioid intracellular receptor 1, sequence (Q99720 whole entry): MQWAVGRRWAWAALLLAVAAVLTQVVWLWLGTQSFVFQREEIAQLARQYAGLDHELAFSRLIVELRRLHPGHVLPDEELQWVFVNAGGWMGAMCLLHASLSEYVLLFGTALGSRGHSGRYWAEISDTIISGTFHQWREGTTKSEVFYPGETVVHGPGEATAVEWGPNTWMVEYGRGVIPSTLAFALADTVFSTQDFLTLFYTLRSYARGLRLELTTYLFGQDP

[19] = target: Adenosine receptor A2a (Mus musculus) (UniProt Q60613); test: Displacement of [3H]2-[p-(2-carboxyethyl)phenylethylamino]-5-N-ethylcarboxamidoadenosine from mouse A2A adenosine receptor expressed in HEK293 cell membranes at 10 uM after 60 mins by scintillation proximity assay relative to adenosine 5-N-ethyluronamide
Adenosine receptor A2a (Mus musculus), sequence (Q60613 whole entry): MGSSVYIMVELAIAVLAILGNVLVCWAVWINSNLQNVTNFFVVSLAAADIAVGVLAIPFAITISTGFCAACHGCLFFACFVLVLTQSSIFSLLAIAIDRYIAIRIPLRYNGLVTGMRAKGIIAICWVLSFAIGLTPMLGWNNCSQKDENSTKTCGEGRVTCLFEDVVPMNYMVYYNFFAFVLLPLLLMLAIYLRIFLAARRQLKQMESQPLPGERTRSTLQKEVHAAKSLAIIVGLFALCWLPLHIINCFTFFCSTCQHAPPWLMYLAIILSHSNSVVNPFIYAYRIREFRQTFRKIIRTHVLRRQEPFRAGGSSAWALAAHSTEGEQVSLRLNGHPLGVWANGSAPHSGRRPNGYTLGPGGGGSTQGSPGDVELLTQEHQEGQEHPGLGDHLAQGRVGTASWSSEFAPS

[20] = target: T8, Adenosine receptor A1 (Homo sapiens, UniProt P30542); test: Displacement of [3H]N6-R-phenylisopropyladenosine from human A1A adenosine receptor expressed in CHO cell membranes after 60 mins by scintillation proximity assay
T8 sequence (P30542 whole entry): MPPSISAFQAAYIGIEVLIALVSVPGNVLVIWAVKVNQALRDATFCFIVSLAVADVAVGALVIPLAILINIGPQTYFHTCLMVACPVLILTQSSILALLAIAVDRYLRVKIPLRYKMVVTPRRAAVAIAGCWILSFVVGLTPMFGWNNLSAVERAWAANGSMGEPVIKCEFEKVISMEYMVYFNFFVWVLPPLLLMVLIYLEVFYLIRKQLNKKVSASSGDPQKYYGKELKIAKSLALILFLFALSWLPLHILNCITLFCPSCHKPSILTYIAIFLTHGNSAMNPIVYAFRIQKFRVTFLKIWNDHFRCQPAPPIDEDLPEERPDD

[21] = target: T1, Adenosine receptor A2a; test: Displacement of [3H]2-[p-(2-carboxyethyl)phenylethylamino]-5-N-ethylcarboxamidoadenosine from human A2A adenosine receptor expressed in HEK293 cell membranes after 60 mins by scintillation proximity assay
[22] = target: T9, Adenosine receptor A3 (Homo sapiens, UniProt P0DMS8); test: Displacement of [125I]N6-(4-amino-3-iodobenzyl)adenosine-5-N-methyluronamide from human A3A adenosine receptor expressed in CHO cell membranes after 60 mins by scintillation proximity assay
T9 sequence (P0DMS8 whole entry): T2 sequence (whole entry)

T1 sequence (P29274 whole entry): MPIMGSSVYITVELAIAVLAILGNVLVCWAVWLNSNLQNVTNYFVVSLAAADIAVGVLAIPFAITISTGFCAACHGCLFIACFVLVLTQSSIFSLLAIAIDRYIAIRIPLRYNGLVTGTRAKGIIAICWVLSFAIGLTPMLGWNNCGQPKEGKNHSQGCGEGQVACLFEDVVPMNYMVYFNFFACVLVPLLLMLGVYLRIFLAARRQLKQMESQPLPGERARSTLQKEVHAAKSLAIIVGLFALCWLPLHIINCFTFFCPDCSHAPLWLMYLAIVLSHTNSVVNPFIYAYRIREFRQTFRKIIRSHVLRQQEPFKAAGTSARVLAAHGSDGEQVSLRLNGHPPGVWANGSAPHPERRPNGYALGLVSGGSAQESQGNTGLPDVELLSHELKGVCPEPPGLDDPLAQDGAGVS

NC(=O)c1ncn([C@@H]2O[C@H](CO)[C@@H](O)[C@H]2O)n1
inhibition [1]: 23%
inhibition [2]: 16%
inhibition [3]: 0%

OC[C@H]1O[C@@H](n2cnc3c(NC(C4CCC4)C4CCC4)nc(Cl)nc32)[C@H](O)[C@@H]1O
Emax [4]: 90%
Emax [5]: 63%
Ratio Ki [6]: 1000
T [7]: 35.5 °C
Activity [8]: 13.5
Fu [9]: 5.81%
Fu [10]: 4.74%
Fu [11]: 4.64%

CCOC(=O)[C@@]12C[C@@H]1[C@@H](n1cnc3c(NC(C4CC4)C4CC4)nc(Cl)nc31)[C@H](O)[C@@H]2O
Ki [12]: 54 nM

OC[C@H]1O[C@@H](n2cnc3c(N[C@H]4C[C@H]5CC[C@@H]4C5)ncnc32)[C@H](O)[C@@H]1O
Ki [13]: 0.14 nM
Ki [14]: 424 nM

CNC(=O)[C@]12C[C@@H]1[C@@H](n1cnc3c(NC4CCCC4)nc(Cl)nc31)[C@H](O)[C@@H]2O
Ki [13]: 0.68 nM
Ki [14]: 3.46 nM
Ki [15]: 12 nM

O[C@H]1[C@H](n2cnc3c(NC(C4CCC4)C4CCC4)ncnc32)[C@H]2C[C@@]2(CCl)[C@H]1O
inhibition [1]: 38%
inhibition [2]: 49%
Ki [16]: 1170 nM
Ki [17]: 2020 nM
T [7]: 35.9 °C
Activity [8]: 14.8

O[C@@H]1[C@H](O)[C@@H]2C[C@@H]2[C@H]1n1cnc2c(NC(C3CCCC3)C3CCCC3)nc(Cl)nc21
Ki [12]: 2920 nM
Ki [16]: 2010 nM
Ki [18]: 5090 nM

CCOC(=O)[C@@]12C[C@@H]1[C@@H](n1cnc3c(NC(C4CCC4)C4CCC4)nc(Cl)nc31)[C@H](O)[C@@H]2O
inhibition [1]: 57%
Ki [16]: 2020 nM

O=C(NCCO)[C@@]12C[C@@H]1[C@@H](n1cnc3c(N[C@H]4C[C@H]5CC[C@@H]4C5)nc(Cl)nc31)[C@H](O)[C@@H]2O
inhibition [19]: 23%

Nc1nc(Cl)nc2c1ncn2[C@H]1[C@H](O)[C@H](O)[C@]2(CCl)C[C@H]12
Ki [20]: 7.61 nM
Ki [21]: 1750 nM
Ki [22]: 253 nM
Ki [16]: 2550 nM
Ki [18]: 1970 nM
